Data as given in US9163032B2, “Esters of DCPLA and methods of treatment using the same” (Blanchette Rockefeller Neurosciences Institute, priority 2011, dated 2015).
Where two headings read alike, the source gives them in different places.

What was measured:
PKC-ε [1] = target: T1, PKC-ε (Homo sapiens, UniProt Q02156); experiment: PKC activation assay with purified PKC-ε isozyme (32P-phosphoprotein formation); format: biochemical; conditions: for Emax: % of control of PKCε at maximum; for Specificity ε/α: Activation of PKC-ε ÷ activation or inhibition of PKCα at 3xEC50; for concentration of maximal activation: FIG. 2, FIG. 4; for EC50: lowest concentration that activates by 50% of maximum activation; for PKC-ε activation at its peak: maximum, FIG. 1, 2, 4
T1 sequence (Q02156 1-737): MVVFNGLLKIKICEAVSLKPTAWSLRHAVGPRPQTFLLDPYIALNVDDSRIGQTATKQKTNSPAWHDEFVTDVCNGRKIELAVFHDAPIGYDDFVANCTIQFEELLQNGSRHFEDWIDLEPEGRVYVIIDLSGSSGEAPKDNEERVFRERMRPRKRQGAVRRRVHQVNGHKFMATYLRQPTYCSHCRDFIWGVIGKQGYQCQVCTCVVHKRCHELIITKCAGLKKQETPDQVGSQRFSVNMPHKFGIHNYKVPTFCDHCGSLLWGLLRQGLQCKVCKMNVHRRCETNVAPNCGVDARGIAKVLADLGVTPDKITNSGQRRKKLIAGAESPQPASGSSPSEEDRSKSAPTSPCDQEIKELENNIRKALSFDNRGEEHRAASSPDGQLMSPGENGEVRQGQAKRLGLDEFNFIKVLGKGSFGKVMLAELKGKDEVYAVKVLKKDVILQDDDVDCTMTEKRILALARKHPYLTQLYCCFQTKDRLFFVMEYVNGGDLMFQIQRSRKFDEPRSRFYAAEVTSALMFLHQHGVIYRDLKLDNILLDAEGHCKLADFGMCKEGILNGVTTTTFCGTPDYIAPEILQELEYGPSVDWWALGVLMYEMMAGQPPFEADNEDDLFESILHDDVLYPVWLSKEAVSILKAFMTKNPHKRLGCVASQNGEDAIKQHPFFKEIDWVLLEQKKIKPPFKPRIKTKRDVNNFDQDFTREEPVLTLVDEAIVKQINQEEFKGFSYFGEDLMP
Procedure: (§1) For measurement of PKC activation by DCPLA-ME, activation of recombinant PKC-α, PKC-ε, and PKC-δ was evaluated. DCPLA-ME induced activation was measured in the absence of diacylglycerol (DAG) and phosphatidylserine (PS) as described earlier. See Nelson, T. J. et al., J. Biol. Chem., 2009, 284: 34514-34521, and Kanno, T. et al., J. Cell Physiol., 2009, 221: 183-188. Individual enzymes were incubated for 15 min at 37° C. in the presence of 10 μM histones, 4.89 mM CaCl2, 10 mM MgCl2, 20 mM HEPES (pH 7.4), 0.8 mM EDTA, 4 mM EGTA, 4% glycerol, 8 μg/ml aprotinin, 8 μg/ml leupeptin, 2 mM benzamidine, and 0.5 μCi of [γ-^32P]ATP. Purified PKC-α, PKC-ε and PKC-δ were preincubated with DCPLA-ME for 5 min at room temperature. [^32P]-Phosphoprotein formation was measured by adsorption onto phosphocellulose.
(§2) To measure PKC, 10 μl of cell homogenate or purified PKC isozyme was incubated for 15 min at 37° C. in the presence of 10 μM histones, 4.89 mM CaCl2, 1.2 μg/μl phosphatidyl-L-serine, 0.18 μg/μl 1,2-dioctanoyl-sn-glycerol, 10 mM MgCl2, 20 mM HEPES (pH 7.4), 0.8 mM EDTA, 4 mM EGTA, 4% glycerol, 8 μg/ml aprotinin, 8 μg/ml leupeptin, and 2 mM benzamidine. [γ32P]ATP (0.5 μCi) was added and 32P-phosphoprotein formation was measured by adsorption onto phosphocellulose as described previously. See Nelson et al., J. Neurochemistry, 1995, 65: 2350-2357.
(§3) PKC activity of each compound was measured in the absence of diacylglycerol and phosphatidyl-L-serine and PKC-δ and PKC-ε were measured in the absence of added EGTA and CaCl2, as described by Kanno et al., J. Lipid Res., 2006, 47: 1146-1156. Low concentrations of Ca^2+ are needed because high Ca^2+ interacts with the PKC phosphatidylserine binding site and prevents activation. […] To determine their PKC isozyme specificity, the compounds were pre-incubated with purified isoforms of PKC for five minutes and the PKC activity was measured radiometrically.
(§4) The activation and PKC isozyme specificity of DCPLA-ethyl ester was measured following the procedures in Example 1(B) and (C), except that 9 ng of the purified isozyme was used and it was pre-incubated for 5 minutes at room temperature (FIG. 3). PKC-ε activation by DCPLA-tert-butyl ester and DCPLA-retinyl ester was measured in the same manner as DCPLA-ethyl ester (FIG. 3).
The EC50 values, PKC specificity, and activation for a select number of DCPLA esters was determined (see Table 1). EC50 values were determined by measuring the lowest concentration that activates by 50% of maximum activation. […] The specificity and activation of PKC by the various esters of DCPLA were determined from the measurements of activation of PKC isozymes.

PKC-α = PKC-α (Homo sapiens, UniProt P17252); experiment: PKC activation assay with purified PKC-α isozyme; format: biochemical
Procedure: as §1
as §2, with “See Nelson et al., J. Neurochemistry, 1995, 65: 2350-2357.” left out
as §3, with “1146-1156.” for “1146-1156. Low concentrations of Ca^2+ are needed because high Ca^2+ interacts with the PKC phosphatidylserine binding site and prevents activation.”
as §4

PKC-δ = PKC-δ (Homo sapiens, UniProt Q05655); experiment: PKC activation assay with purified PKC-δ isozyme; format: biochemical
Chain of PKC-δ (Q05655 whole entry): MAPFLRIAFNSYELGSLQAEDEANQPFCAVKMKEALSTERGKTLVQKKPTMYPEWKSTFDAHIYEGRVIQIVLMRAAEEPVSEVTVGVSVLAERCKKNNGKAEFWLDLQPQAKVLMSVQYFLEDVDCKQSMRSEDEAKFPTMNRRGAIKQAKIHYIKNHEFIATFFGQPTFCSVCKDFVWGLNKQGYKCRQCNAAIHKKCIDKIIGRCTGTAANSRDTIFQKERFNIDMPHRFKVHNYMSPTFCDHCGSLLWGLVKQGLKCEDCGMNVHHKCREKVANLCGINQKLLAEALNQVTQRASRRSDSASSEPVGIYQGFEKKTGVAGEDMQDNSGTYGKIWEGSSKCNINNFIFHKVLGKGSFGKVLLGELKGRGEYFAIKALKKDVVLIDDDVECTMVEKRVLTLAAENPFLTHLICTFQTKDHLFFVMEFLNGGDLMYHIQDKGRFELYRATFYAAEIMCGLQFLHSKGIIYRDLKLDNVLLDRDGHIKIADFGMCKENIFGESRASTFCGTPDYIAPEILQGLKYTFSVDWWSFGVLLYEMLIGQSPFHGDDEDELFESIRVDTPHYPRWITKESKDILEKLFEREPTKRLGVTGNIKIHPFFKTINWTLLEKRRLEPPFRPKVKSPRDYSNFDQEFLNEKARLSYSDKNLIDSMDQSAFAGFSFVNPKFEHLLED
Procedure: as §1
as §2, with “2350-2357. […]” for “2350-2357.”

[2] = system: cultured primary rat hippocampal neurons; experiment: Neuroprotection against ASPD induced toxicity, MTT assay, primary neurons; format: cell-based; conditions: added to the cells with DCPLA-ME, 50 nM ASPD
Procedure: Viability of cells was measured by MTT assay. MTT (i.e., 3-(4,5-dimethylthiazol-2-yl)-2,5-diphenyltetrazolium bromide) is a tetrazolium salt that is cleaved to formazan by the succinate dehydrogenase, which is only active in viable cells. After solubilization of the formazan, the amount of dye can be quantified with a microplate reader at 570 nm along with a reference of 630 nm. For the MTT assay, 5×10^4 primary rat hippocampal neurons from 18-day-old embryonic Sprague-Dawley rat brains or SH-SY5Y cells were plated on each well of 24-well plates coated with poly-D-lysine. After treatment, the cells were washed with 1× PBS and were incubated with 200 μl of 1 mg/ml MTT solution (Sigma, USA) at 37° C. for 2 hr. Then the MTT-solution was removed and the cells were lysed with 200 μl isopropanol containing 0.04 M HCl and […] for 10 min. Finally, the reading was taken at 570 nm and 630 nm. All the samples were done in triplicate and the data were represented as the percentage of control.
Bryostatin 1, DCPLA, and DCPLA-ME were tested against ASPD-induced cytotoxicity to determine their neuroprotective efficacy.

PKC-ε [3] = experiment: PKC-ε level in primary neurons (immunofluorescence, Western Blot); format: cell-based, rat; conditions: 5 μM inhibitor, ASPD + DCPLA-ME
Procedure: Cells were grown in two chambered slides (Nunc, USA) at low density. For immunofluorescence staining, the cells were washed with PBS (pH 7.4) and fixed with 4% paraformaldehyde for 4 min. Following fixation, the cells were blocked and permeabilized with 5% serum and 0.3% Triton X-100 in 1×PBS for 30 min. Cells were washed three times with 1×PBS and incubated with primary antibodies for 1 hr at 1:100 dilution. After the incubation, the slides were again washed three times in 1×PBS and were incubated with the FITC anti-mouse IgG and Rhodamine anti-rabbit IgG for 1 hr at 1:400 dilution. The cells were further washed and stained with DAPI (4′,6-diamidino-2′-phenylindole, dihydrochloride) (Thermo Scientific, USA) to stain the nucleus. Finally, the slides were washed and mounted in Pro Long Gold antifade mounting solution (Invitrogen, USA) and were viewed under a LSM 710 Meta confocal microscope (Zeiss) at 350 nm, 490 nm, and 540 nm excitation and 470 nm, 525 nm, and 625 nm emission for DAPI, FITC, and Rhodamine respectively. Six individual fields at 63× oil lens magnification were analyzed for the mean fluorescence intensity (MFI) in each channel.
Cells were harvested in homogenizing buffer containing 10 mM Tris-Cl (pH 7.4), 1 mM PMSF (phenylmethylsulfonyl fluoride), 1 mM EGTA, 1 mM EDTA, 50 mM NaF, and 20 μM leupeptin, and were lysed by sonication. The homogenate was centrifuged at 100,000×g for 15 min at 4° C. to obtain the cytosolic fraction (supernatant) and membrane (pellet). The pellet was resuspended in the homogenizing buffer by sonication. […] Protein concentration was measured using the Coomassie Plus (Bradford) Protein Assay kit (Pierce, USA). Following quantification, 20 μg of protein from each sample was subjected to SDS-PAGE analysis in a 4-20% gradient Tris-Glycine gel (Invitrogen, USA). […] The blot was imaged in an ImageQuant RT-ECL (GE Life Sciences, Piscataway, N.J.) and densitometric quantification was performed using IMAL software (Blanchette Rockefeller Neurosciences Institute, Morgantown, W. Va.). […]

Compound	Emax (PKC-ε [1]) [%]	Specificity ε/α (PKC-ε [1])	concentration of maximal activation (PKC-ε [1]) [nM]	EC50 (PKC-ε [1]) [nM]	PKC-ε activation at its peak (PKC-ε [1])	other results
CCCCC/C=C\C/C=C\CCCCCCCC(=O)O[C@H]1CC[C@@]2(C)C(=CC[C@H]3[C@@H]4CC[C@H]([C@H](C)CCCC(C)C)[C@@]4(C)CC[C@@H]32)C1 [Cholesteryl linoleate, cholesteryl linoleate, reference compound]						PKC-ε activation (PKC-ε [1]; FIG. 4): little or no activation; PKC-α activation (PKC-α; FIG. 4): 20%
CCCCCC1CC1CC1CC1CCCCCCCC(=O)OC1CC[C@@]2(C)C(=CC[C@H]3[C@H]4CC[C@H]([C@H](C)CCCC(C)C)[C@@]4(C)CC[C@H]32)C1 (some centres unmarked) [DCPLA-cholesteryl ester, DCPLA cholesteryl ester]	122	0.94	0.01	0.005	up to 130 % of control	affinity for PKC-ε and PKC-δ (PKC-ε [1]): extremely high affinity; form of activity vs. concentration response (PKC-ε [1]): biphasic manner; potency relative to Bryostatin 1 (PKC-ε [1]; from concentration of maximal activity): 18 ×; form of activity vs. concentration response (PKC-ε [1]; listed as cholesteryl ester): bimodal activation; effect on PKC-α (PKC-α): inhibited at all concentrations
CCCCCC1CC1CC1CC1CCCCCCCC(=O)OC(C)C (centres unmarked) [DCPLA-isopropyl ester]	140	1.4	10	0.1	up to 40 % of control	effect on PKC-δ (PKC-δ): only slightly activated
EAVSLKPT						effect on DCPLA-ME neuroprotection [2]: blocked DCPLA-ME's protective effect; effect on DCPLA-ME protection of PKC-ε protein level (PKC-ε [3]): completely blocked
